The record followed here is US12221406B2, “Compounds as NLRP3 inflammasome inhibitors and compositions and uses thereof” (VIRGINIA COMMONWEALTH UNIVERSITY, priority 2019, dated 2025).

Bounds are passed on as bounds.

The first assay deals with T1, NLRC4 inflammasome (Mus musculus, UniProt Q3UP24).
T1 construct: endogenous in cells; host or cells: J774A.1 murine macrophage cell line (LPS + transfected flagellin)
Nature of the assay: NLRC4 inflammasome assay in J774A.1 cells (LPS/flagellin, IL-1β ELISA). To be noted: compound 10 μM. The class given is cell-based, murine. As for the experimental part: (§1) J774A.1 cells were plated into a 96-well plate. […] Cells were treated with LPS (1 μg/mL) and test compounds for 1 h. Flagellin or poly-deoxyadenylic-deoxythymidylic acid sodium salt (Poly(dA:dT)) was used to induce the formation of the NLRC4 and the AIM2 inflammasomes.
For orientation: In an ELISA, binding on a coated surface is turned into a signal by an enzyme label.
`C#CCNS(=O)(=O)c1ccc(CCN(Cc2cc(Cl)ccc2OC)C(=O)C=C)cc1` [HL16, N-(5-chloro-2-methoxybenzyl)-N-(4-(N-(prop-2-yn-1-yl)sulfamoyl)phenethyl)acryl-amide]: the “effect on IL-1β production by NLRC4 inflammasome” value is recorded as “significantly inhibited”.

The target in the next assay is T2, AIM2 inflammasome (Mus musculus, UniProt Q91VJ1).
T2 construct: endogenous in cells; host or cells: J774A.1 murine macrophage cell line (LPS + Poly(dA:dT))
T2 sequence (Q91VJ1 1-354): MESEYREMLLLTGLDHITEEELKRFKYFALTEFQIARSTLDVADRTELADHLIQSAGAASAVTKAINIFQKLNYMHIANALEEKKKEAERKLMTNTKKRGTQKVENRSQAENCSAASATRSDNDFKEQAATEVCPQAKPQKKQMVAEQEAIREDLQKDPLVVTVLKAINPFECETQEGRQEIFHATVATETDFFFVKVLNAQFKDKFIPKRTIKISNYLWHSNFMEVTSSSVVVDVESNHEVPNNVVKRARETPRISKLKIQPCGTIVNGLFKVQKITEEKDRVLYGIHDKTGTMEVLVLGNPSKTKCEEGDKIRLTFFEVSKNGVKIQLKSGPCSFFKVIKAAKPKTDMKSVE
Nature of the assay: AIM2 inflammasome assay in J774A.1 cells (LPS/Poly(dA:dT), IL-1β ELISA). The following applies: compound 10 μM. The class given is cell-based, murine. As for the experimental part:
as §1
Consider `C#CCNS(=O)(=O)c1ccc(CCN(Cc2cc(Cl)ccc2OC)C(=O)C=C)cc1` [HL16, N-(5-chloro-2-methoxybenzyl)-N-(4-(N-(prop-2-yn-1-yl)sulfamoyl)phenethyl)acryl-amide], for which the “effect on IL-1β production by AIM2 inflammasome” value is reported as “significantly inhibited”.

The test system of another assay is EAE. Nature of the assay: EAE development in MOG-immunized mice. The assay is classed as in vivo, C57BL/6 mice. The following applies: 2 mg/kg i.p., from disease onset, to day 35. The source says:
C57BL/6 mice (n=10) were immunized subcutaneously in the dorsal flanks with MOG35-55 peptide emulsified in CFA on day 0. […] To assess the therapeutic effect in clinically relevant setting, treatment was started on disease onset (reduced tail tone, clinical score=1). Control mice received DMSO.
Turning to `C#CCNS(=O)(=O)c1ccc(CCN(Cc2cc(Cl)ccc2OC)C(=O)C=C)cc1` [HL16, N-(5-chloro-2-methoxybenzyl)-N-(4-(N-(prop-2-yn-1-yl)sulfamoyl)phenethyl)acryl-amide], the “EAE induction (clinical score)” value was “substantially blocked induction of EAE”.

The assay is the same for the next values; noted with them: 10 mg/kg i.p., from disease onset, to day 35.
`C#CCNS(=O)(=O)c1ccc(CCN(Cc2cc(Cl)ccc2OC)C(=O)C=C)cc1` [HL16, N-(5-chloro-2-methoxybenzyl)-N-(4-(N-(prop-2-yn-1-yl)sulfamoyl)phenethyl)acryl-amide]: the “EAE induction (clinical score)” value was “substantially blocked induction of EAE”.

The target of the next assay is T3, NLRP3 inflammasome (Mus musculus, UniProt Q8R4B8). Description: IL-1β release from J774A.1 cells upon LPS/ATP stimulation (ELISA).
T3 sequence (Q8R4B8 whole entry): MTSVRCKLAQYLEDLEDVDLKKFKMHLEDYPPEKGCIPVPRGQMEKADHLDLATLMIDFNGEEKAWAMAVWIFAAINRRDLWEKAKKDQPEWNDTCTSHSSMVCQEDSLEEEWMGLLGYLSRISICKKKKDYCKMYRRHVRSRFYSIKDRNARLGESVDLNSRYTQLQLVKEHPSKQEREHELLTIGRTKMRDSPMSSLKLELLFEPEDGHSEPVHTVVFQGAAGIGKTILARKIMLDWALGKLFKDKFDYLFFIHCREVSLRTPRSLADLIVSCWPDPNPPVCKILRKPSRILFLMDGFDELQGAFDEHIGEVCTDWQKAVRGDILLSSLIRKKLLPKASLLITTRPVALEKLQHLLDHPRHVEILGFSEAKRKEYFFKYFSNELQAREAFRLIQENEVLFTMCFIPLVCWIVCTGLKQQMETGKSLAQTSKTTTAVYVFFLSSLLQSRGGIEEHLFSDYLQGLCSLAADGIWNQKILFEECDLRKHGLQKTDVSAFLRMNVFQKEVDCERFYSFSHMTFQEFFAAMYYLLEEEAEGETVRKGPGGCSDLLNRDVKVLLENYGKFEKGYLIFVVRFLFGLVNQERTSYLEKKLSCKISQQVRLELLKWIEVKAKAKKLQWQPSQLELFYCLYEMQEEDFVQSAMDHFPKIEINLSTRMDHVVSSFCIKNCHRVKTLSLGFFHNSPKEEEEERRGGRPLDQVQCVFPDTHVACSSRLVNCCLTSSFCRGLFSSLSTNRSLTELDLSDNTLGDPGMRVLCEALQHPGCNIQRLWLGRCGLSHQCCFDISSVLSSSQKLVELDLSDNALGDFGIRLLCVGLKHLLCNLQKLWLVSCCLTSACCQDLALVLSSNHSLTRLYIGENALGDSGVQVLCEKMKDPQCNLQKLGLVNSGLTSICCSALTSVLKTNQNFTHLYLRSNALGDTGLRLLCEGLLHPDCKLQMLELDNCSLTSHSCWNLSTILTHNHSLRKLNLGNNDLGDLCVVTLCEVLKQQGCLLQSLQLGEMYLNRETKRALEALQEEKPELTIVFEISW
Details: not given
Usually IC50 stands for the midpoint of a concentration-inhibition curve. `O=C(NCCc1ccc(S(=O)(=O)N2CCCC2)cc1)c1cc(Cl)ccc1C(=O)c1ccccc1` [SZ-N3I-64]: the IC50 is 1 to 10 µM.
With `C=CCN(CCc1ccc(S(=O)(=O)NC)cc1)C(=O)c1cc(Cl)ccc1C(=O)c1ccccc1` [SZ-N3I-32], the IC50 was in the range of 1 to 10 µM.
Same read-out and setting: to `COc1ccc(Cl)cc1C(=O)NCCc1ccc(S(=O)(=O)NCCOCCOCCCCCCCl)cc1` [SZ-N3I-62] belongs 1 to 10 µM.
Still for that read-out and setting: under `C#CCNS(=O)(=O)c1ccc(CCN(Cc2cc(Cl)ccc2OCCC)C(=O)[C@H](N)c2ccsc2)cc1` [SZ-N3I-84] stands 1 to 10 µM; under `C=CC(=O)N(CCc1ccc(S(=O)(=O)NCc2ccc(OC)cc2)cc1)Cc1cc(Cl)ccc1OC` [SZ-N3I-26], below 1 µM; under `C#CCCC1(CCOc2ccc(Cl)cc2CN(CCc2ccc(S(=O)(=O)NCC#C)cc2)C(=O)Cc2ccsc2)N=N1` [SZ-N3I-82], below 1 µM.
On the same count and under the same terms, under `CCCCN(CCCC)S(=O)(=O)c1ccc(CCN(Cc2cc(Cl)ccc2OC)C(=O)Cc2ccccc2)cc1` [SZ-N3I-30] stands 1 to 10 µM; under `CCCOc1ccc(Cl)cc1CN(CCc1ccc(S(=O)(=O)NCc2ccc(OC)cc2)cc1)C(=O)Cc1ccccc1` [SZ-N3I-24], below 1 µM.
In turn, `CCCCCCCOc1ccc(Cl)cc1CN(CCc1ccc(S(=O)(=O)NCc2ccc(OC)cc2)cc1)C(=O)Cc1ccccc1` [SZ-N3I-29] gave an IC50 above 30 µM.
Still for that read-out and setting: under `CCCN(CCc1ccc(S(=O)(=O)NC)cc1)Cc1cc(Cl)ccc1OC` [SZ-N3I-20] stands 1 to 10 µM.
Still for that read-out and setting: to `C#CCNS(=O)(=O)c1ccc(CCN(Cc2cc(Cl)ccc2OCCC)C(C)C)cc1` [SZ-N3I-68] belongs 1 to 10 µM.
Same read-out and setting: under `CCCOc1ccc(Cl)cc1CN(CCc1ccc(C(=O)OC)cc1)C(=O)Cc1ccsc1` [SZ-N3I-60] stands 1 to 10 µM; under `CNS(=O)(=O)c1ccc(CCN(Cc2cc(Cl)ccc2OC)C(=O)Cc2ccccc2)cc1` [SZ-N3I-12], below 1 µM; under `C#CCNC(=O)c1ccc(CCN(Cc2cc(Cl)ccc2OCCC)C(=O)Cc2ccsc2)cc1` [SZ-N3I-61], below 1 µM.
On to `C#CCNS(=O)(=O)c1ccc(CCN(Cc2cc(Cl)ccc2OCCC)C(=O)[C@@H]2CCCN2)cc1` [SZ-N3I-71], for which the concentration for half-maximal inhibition (IC50) lay within 1 to 10 µM.
Still for that read-out and setting: to `CCCOc1ccc(Cl)cc1CN(CCc1ccc(C(=O)NC)cc1)C(=O)Cc1ccccc1` [SZ-N3I-36] belongs 1 to 10 µM; to `C#CCNS(=O)(=O)c1ccc(CCN(Cc2cc(Cl)ccc2OCCC)C(=O)C(N)C(C)C)cc1` (centres unmarked) [SZ-N3I-70], 1 to 10 µM; to `C#CCNS(=O)(=O)c1ccc(CCN(Cc2cc(Cl)ccc2OCCC)C(=O)[C@H]2CCCN2)cc1` [SZ-N3I-72], 1 to 10 µM.
Compound `CCCCN(CCCC)C(=O)c1ccc(CCN(Cc2cc(Cl)ccc2OCCC)C(=O)Cc2ccccc2)cc1` [SZ-N3I-38] had an IC50 below 1 µM.
Still for that read-out and setting: under `C#CCNS(=O)(=O)c1ccc(CCN(Cc2cc(Cl)ccc2OCCO)C(=O)Cc2ccsc2)cc1` [SZ-N3I-74] stands 1 to 10 µM.
The same measure, in the same setting: to `C#CCNS(=O)(=O)c1ccc(CCN(Cc2cccc3c2OCO3)C(=O)Cc2ccsc2)cc1` [SZ-N3I-88] belongs below 1 µM; to `CCCCN(CCCC)S(=O)(=O)c1ccc(CCN(Cc2cc(Cl)ccc2OCCC)C(=O)Cc2ccccc2)cc1` [SZ-N3I-31], above 30 µM.
Still for that read-out and setting: to `CCCCCC(=O)N(CCc1ccc(S(=O)(=O)NC)cc1)Cc1cc(Cl)ccc1OC` [SZ-N3I-16] belongs 1 to 10 µM.
`COc1ccc(CNS(=O)(=O)c2ccc(CCN(Cc3cc(Cl)ccc3OCC3CC3)C(=O)Cc3ccccc3)cc2)cc1` [SZ-N3I-25] displayed a half-maximal inhibitory concentration (IC50) of 1 to 10 µM.
Still for that read-out and setting: under `O=C(NCCc1ccc(S(=O)(=O)NCc2ccccc2)cc1)c1cc(Cl)ccc1C(=O)c1ccccc1` [SZ-N3I-63] stands below 1 µM; under `C#CCNS(=O)(=O)c1ccc(CCN(Cc2cc(Cl)ccc2OCCC)C(=O)[C@@H](N)Cc2ccsc2)cc1` [SZ-N3I-79], below 1 µM.
Same read-out and setting: to `C#CCNS(=O)(=O)c1ccc(CCN(Cc2cc(Cl)ccc2O)C(=O)Cc2ccsc2)cc1` [SZ-N3I-81] belongs below 1 µM; to `C#CCNS(=O)(=O)c1ccc(CCN(Cc2cc(Cl)ccc2[N+](=O)[O-])C(=O)[C@@H](N)Cc2cccs2)cc1` [SZ-N3I-87], below 1 µM.
Still for that read-out and setting: to `COc1ccc(CNS(=O)(=O)c2ccc(CCN(Cc3cc(Cl)ccc3OC)C(=O)Cc3ccccc3)cc2)cc1` [SZ-N3I-22] belongs below 1 µM.
Consider `C#CCNS(=O)(=O)c1ccc(CCN(CCCCC)Cc2cc(Cl)ccc2OCCC)cc1` [SZ-N3I-67], for which the IC50 lay in the range of 1 to 10 µM.
Still for that read-out and setting: to `CCCOc1ccc(Cl)cc1CN(CCc1ccc(C(=O)OC)cc1)C(=O)Cc1ccccc1` [SZ-N3I-35] belongs below 1 µM; to `C=CCN(CCc1ccc(S(=O)(=O)NC)cc1)Cc1cc(Cl)ccc1OC` [SZ-N3I-14], 1 to 10 µM; to `CCC(=O)N(CCc1ccc(S(=O)(=O)NC)cc1)Cc1cc(Cl)ccc1OC` [SZ-N3I-18], 1 to 10 µM.
Same read-out and setting: to `CCCOc1ccc(Cl)cc1CN(CCc1ccc(S(=O)(=O)N2CCNCC2)cc1)C(=O)Cc1ccsc1` [SZ-N3I-69] belongs 1 to 10 µM.
On the same count and under the same terms, under `C#CCNS(=O)(=O)c1ccc(CCN(Cc2cc(Cl)ccc2OCCC)C(=O)[C@H]2NCCS2)cc1` [SZ-N3I-75] stands 1 to 10 µM.
In the case of `CCCOc1ccc(Cl)cc1CN(CCc1ccc(S(=O)(=O)N2CCOCC2)cc1)C(=O)Cc1ccsc1` [SZ-N3I-80], the IC50 was below 1 µM.
In turn, `O=C(NCCc1ccc(S(=O)(=O)N2CCCC2)cc1)c1cc(Cl)ccc1C(O)c1ccccc1` (centres unmarked) [SZ-N3I-66] showed an IC50 of 1 to 10 µM.
The same measure, in the same setting: under `C=CCOc1ccc(Cl)cc1CN(CCc1ccc(S(=O)(=O)NCc2ccc(OC)cc2)cc1)C(=O)Cc1ccccc1` [SZ-N3I-27] stands below 1 µM; under `O=C(NCCc1ccc(S(=O)(=O)NCc2ccccc2)cc1)c1cc(Cl)ccc1C(O)c1ccccc1` (centres unmarked) [SZ-N3I-65], 1 to 10 µM.
As for `COc1ccc(CNS(=O)(=O)c2ccc(CCN(Cc3cc(Cl)ccc3OCc3ccccc3)C(=O)Cc3ccccc3)cc2)cc1` [SZ-N3I-28], the IC50 was 1 to 10 µM.
Still for that read-out and setting: to `CCOc1ccc(Cl)cc1CN(CCc1ccc(S(=O)(=O)NCc2ccc(OC)cc2)cc1)C(=O)Cc1ccccc1` [SZ-N3I-23] belongs 1 to 10 µM; to `C#CCNS(=O)(=O)c1ccc(CCN(Cc2cc(Cl)ccc2OCCC)C(=O)[C@@H](N)c2ccsc2)cc1` [SZ-N3I-85], below 1 µM; to `C#CCNS(=O)(=O)c1ccc(CCN(Cc2cc(Cl)ccc2N)C(=O)Cc2ccsc2)cc1` [SZ-N3I-86], 1 to 10 µM.
Regarding `CNS(=O)(=O)c1cc(CCNC(=O)c2cc(Cl)ccc2OC)co1` [SZ-N3I-33], the IC50 was 1 to 10 µM.
`C#CCNC(=O)c1ccc(CCN(Cc2cc(Cl)ccc2OCCC)C(=O)Cc2ccccc2)cc1` [SZ-N3I-37] gave an IC50 below 1 µM.
For the compound `C#CCNS(=O)(=O)c1ccc(CCN(Cc2cc(Cl)ccc2C(F)(F)F)C(=O)Cc2ccsc2)cc1` [SZ-N3I-89], the IC50 was below 1 µM.
Take `C#CCNS(=O)(=O)c1ccc(CCN(Cc2cc(Cl)ccc2OCCC)C(=O)[C@@H](N)Cc2cccs2)cc1` [SZ-N3I-78]: the IC50 is below 1 µM.
`CCCOc1ccc(Cl)cc1CN(CCc1ccc(C(=O)NCc2ccc(OC)cc2)cc1)C(=O)Cc1ccccc1` [SZ-N3I-39] yielded an IC50 below 1 µM.
The same measure, in the same setting: under `C#CCNS(=O)(=O)c1ccc(CCN(Cc2cc(Cl)ccc2OCCC)C(=O)[C@H](N)Cc2ccccc2)cc1` [SZ-N3I-77] stands 1 to 10 µM.
Still for that read-out and setting: under `C#CCNS(=O)(=O)c1ccc(CCN(Cc2cc(Cl)ccc2OCCN2CCOCC2)C(=O)Cc2ccsc2)cc1` [SZ-N3I-73] stands 1 to 10 µM; under `C#CCNS(=O)(=O)c1ccc(CCN(Cc2cc(Cl)ccc2[N+](=O)[O-])C(=O)Cc2ccsc2)cc1` [SZ-N3I-83], below 1 µM.

Another assay concerns the target T3, NLRP3 inflammasome. Description: IL-1β release from mouse peritoneal macrophages upon LPS/ATP challenge (ELISA). The assay is classed as cell-based. Also on record: endogenous in cells; host or cells: thioglycolate-elicited peritoneal macrophages from C57BL/6 mice.
Details: not given
The procedure:
Next, test compounds were added for 30 min. […] Primary peritoneal macrophages were similarly treated as described with J774A.1 cell line followed by ELISA analysis for IL-β production.
C57BL/6 mice were injected with 1 mL of 3% thioglycolate into the peritoneal cavity. Peritoneal cells were collected 3 days after injection by flushing the peritoneal cavity with cold PBS. The peritoneal cells were plated in complete RPMI1640 media containing 10% FBS, 100 U/mL penicillin, 100 μg/mL streptomycin. Floating cells were removed after 2 h and adherent peritoneal macrophages were used for experiments as described above.
For the compound `C#CCNS(=O)(=O)c1ccc(CCN(Cc2cc(Cl)ccc2OC)C(=O)C=C)cc1` [HL16, N-(5-chloro-2-methoxybenzyl)-N-(4-(N-(prop-2-yn-1-yl)sulfamoyl)phenethyl)acryl-amide], the “inhibitory activity in mouse peritoneal macrophages” value is given as “confirmed”.
